Patent US11911348B2, “Therapeutic agent for cancer” (THERAVALUES CORPORATION, priority 2014, dated 2024)

System: MC38 mouse colon cancer tumor
Test: Tumor size of subcutaneously implanted MC38 mouse colon cancer in mice
Format: in vivo
Text: As the test animals, 6-week old […] mice (female, weighed around 20 g, CLEA Japan, Inc.) were purchased, and used after being acclimated to the environment for two to five days. • (2) Transplantation Method
In the right abdomen of the test animals, 5×10^5 mouse colon cancer cell lines (MC38) were subcutaneously implanted by using a 27 G needle. • (3) Administration method
Into the mice (n=[…] to 8) to which the colon cancer cell lines (MC 38) had been inoculated, every day from the 3rd day after the inoculation to the last day of the experiment, 200 μl of a curcumin solution prepared by suspending a commercially available curcumin 10%-containing pharmaceutical preparation (Theracurmin® CR-031P, manufactured by Theravalues Corporation) (Examples 1 to 4) in water or by suspending the synthetic curcumin-HPMC complex prepared as described below (Example 5) in water (prepared so that the curcumin content as 5 mg or 30 mg per 1 kg body weight) was forcibly administered orally to the mice using a feeding needle.
In addition, as so the control groups, a curcumin single administration group (Comparative Examples 1, 4, 6, and 10) in a case where Rat IgG2b (clone: LTF-2 manufactured by Bio X Cell) was intraperitoneally administered in place of the anti-PD-L1 antibody (clone: 10F·9G2 manufactured by Bio X Cell) or the anti-PD-1 antibody (clone: RMP1-14 manufactured by Bio X. Cell); an anti-PD-L1 antibody single administration group (Comparative Examples 2, 5 and 7) in a case where water was administered in place of the curcumin solution, and an anti-PD-L1 antibody was administered; an anti-PD-1 antibody single administration group (Comparative Examples 9 and 11) in a case where water was administered in place of the curcumin solution, and an anti-PD-1 antibody was administered; and a water administration group (Comparative Example 3) in a case where water was administered in place of the curcumin solution, and Rat IgG2b (clone: LTF-2 manufactured by Bio X Cell) was administered in place of the anti-PD-L1 antibody were prepared. • (4) Evaluation of Tumor Size
The tumor size of the test animals was measured by measuring the long diameter and the short diameter of the tumor with a vernier caliper every 2 to 4 days, and calculated by the following equation. Tumor size=the long diameter×the short diameter×the short diameter÷2 (Mathematical Formula 1) • (5) Preparation method of synthetic curcumin-HPMC complex

Compound: COc1cc(/C=C/C(=O)/C=C(O)/C=C/c2ccc(O)c(OC)c2)ccc1O [curcumin]
- size of the MC38 mouse colon cancer tumor compared with the control (FIG. 3, curcumin 5 mg/kg/mouse singly administered): same size as that of the control
- antiproliferative effect of the colon cancer tumor (FIG. 3, curcumin 5 mg/kg/mouse, anti-PD-L1 antibody on 7th, 10th, 13th days): not recognized
- size of the MC38 mouse colon cancer tumor compared with the control (FIG. 4, curcumin 30 mg/kg/mouse singly administered): same size as that of the control
- antiproliferative effect of the colon cancer tumor (FIG. 4, curcumin 30 mg/kg/mouse, anti-PD-L1 antibody): not recognized
